# Source: article PMC9282638, “A Suite of Activity-Based Probes To Dissect the KLK Activome in Drug-Resistant Prostate Cancer” (Journal of the American Chemical Society, 2021)
# How the values were obtained:
# [1] = tested on: LNCaP-K14 cells; assay type: cell-based, human; settings: for cytotoxicity: 10 μM, 96 h time period; for effect on proliferation (cell confluency): Figure S27
# Text: Prior to the establishment of bone metastases circulating PCa cells must first enter the bone microenvironment by migrating across the sinusoidal wall.[54] We have previously shown that increased KLK14 activity drives PCa cell migration and colonization of mineralized bone matrices.[15] However, the specific contributions of the KLK activome (KLK2, KLK3, and KLK14) toward PCa cell migration are yet to be elucidated. […] We then assessed the migratory capacity of LNCaP-K14 cells using a transwell assay (see Figure S28 for standard curve).
# proliferation of LNCaP-K14 cells. Cell confluency was monitored by real-time imaging using
# an Incucyte S3 system (Essen Bioscience).
# (1 picture or pasted object on this page, not shown here)
# [2] = tested on: KLK activome (KLK2, KLK3, KLK14) in LNCaP-K14 cells; assay: Residual KLK activity in conditioned media of bABP-treated LNCaP-K14 cells, read out with fABP cocktail; assay type: cell-based, human; settings: 1 μM bABP co-incubated with 10 nM DHT and 200 nM Dox for 48 h
# Text: The data presented above provide evidence that KLK activity in PCa is regulated by the AR at a level beyond simple changes in expression and raise the possibility that KLK activities may be actionable targets for therapeutic intervention at different disease stages, in particular during PCa metastasis to bone. However, KLKs are predicted to form complex proteolytic networks and it is often not clear which protease(s) should be inhibited for maximum phenotypic response in a particular disease setting. […] To enable dissection of the PCa KLK activome directly in LNCaP cells, we further expanded the KLK probe toolbox by synthesizing KLK2_fABP (42) and KLK14_fABP (43) (Figure 6A and Figure S2), fluorescent ABP (fABP) analogues of KLK2_bABP and KLK14_bABP bearing dyes fluorescing at discrete wavelengths, which retain excellent potency and selectivity for KLK2 and KLK14, respectively (Figure S25). KLK2_fABP and KLK14_fABP were combined with KLK3-selective fABP 21 (KLK3_fABP) in an “fABP cocktail” to a final concentration of 1 μM each and incubated for 20 min with CM obtained from LNCaP-WT, LNCaP-mK14, or LNCaP-K14 cells following 48 h treatment with 10 nM DHT to enable simultaneous multicolor readout of KLK2, KLK3, and KLK14 activity. […] However, upon Dox-induced KLK14 expression in DHT-treated LNCaP-K14 cells a significant increase in the activity of all three KLKs was evident (see Figure 6B and Figure S26 for gel quantification). […] Residual KLK activity in CM was then assessed using the fABP cocktail (Figure 6B).
# Figure 6 Dissecting the KLK activome in LNCaP cells. […] (B) KLK activity profiling by in-gel fluorescence of conditioned media obtained from LNCaP-WT, LNCaP-mK14, and LNCaP-K14 cells following treatment with DHT (10 nM), Dox (100 ng/mL), and the appropriate biotinylated ABP using fluorescent ABPs 20, 42 and 43. See Figure S26 for blot and gel quantification. […] Cultures were incubated for a further 24 h before the number of migrating cells was quantified.
smiles,measurement,setting,value
CCC[C@H](NC(=O)[C@H](CCC(N)=O)NC(=O)[C@H](CC(N)=O)NC(=O)CCCCCNC(=O)CCCC[C@@H]1SC[C@@H]2NC(=O)N[C@@H]21)C(=O)NC(c1ccc(C(N)=O)cc1)P(=O)(Oc1ccccc1)Oc1ccccc1 (stereo partly drawn) [compound 20],cytotoxicity,[1],no cytotoxicity
same,effect on proliferation (cell confluency),[1],no significant effect
same,effect on activity of the other KLKs,[2],does not affect the activity of other KLKs
"CC(C)(C)C(NC(=O)CCCCCNC(=O)CCCCC1SCC2NC(=O)NC21)C(=O)NC(CCN)C(=O)NC(Cc1ccc(O)cc1)C(=O)NC(c1ccc(NC(=N)N)cc1)P(=O)(Oc1ccccc1)Oc1ccccc1 (stereo not drawn) [compound 31, Tle-Dab-Tyr-Arg]",cytotoxicity,[1],no cytotoxicity
same,effect on proliferation (cell confluency),[1],no significant effect
same,effect on activity of the other KLKs,[2],does not affect the activity of other KLKs
"CCC(NC(=O)C(CCN)NC(=O)C(Cc1ccc2ccccc2c1)NC(=O)CCCCCNC(=O)CCCCC1SCC2NC(=O)NC21)C(=O)NC(c1ccc(NC(=N)N)cc1)P(=O)(Oc1ccccc1)Oc1ccccc1 (stereo not drawn) [compound 39, 2Nal-Dab-Abu-Arg]",cytotoxicity,[1],no cytotoxicity
same,effect on proliferation (cell confluency),[1],no significant effect
same,effect on activity of the other KLKs,[2],significant decrease
